Experimental data reported in the NIST ThermoML archive (doi:10.1021/je900137r).

Test: molar heat capacity at constant volume
Conditions: Liquid, Vacuum adiabatic calorimetry

CCC [propane]
Conditions | molar heat capacity at constant volume [J/K/mol]
270.37 K, 19134 kPa | 70.51
271.33 K, 19881 kPa | 70.43
272.95 K, 21136 kPa | 70.81
273.9 K, 21877 kPa | 70.9
275.54 K, 23127 kPa | 70.92
276.18 K, 3327 kPa | 70.24
276.48 K, 23865 kPa | 71.62
276.56 K, 3559 kPa | 70.86
278.12 K, 25101 kPa | 71.49
278.85 K, 5025 kPa | 70.73
279.04 K, 25835 kPa | 72.09
279.23 K, 5297 kPa | 71.29
280.7 K, 27065 kPa | 72.08
281.51 K, 6761 kPa | 71.44
281.61 K, 27786 kPa | 72.29
281.9 K, 7032 kPa | 70.95
283.29 K, 29020 kPa | 72.18
284.18 K, 8508 kPa | 71.57
284.19 K, 29713 kPa | 72.65
284.58 K, 8760 kPa | 71.75
285.87 K, 30962 kPa | 72.47
286.77 K, 31632 kPa | 72.64
286.85 K, 10247 kPa | 71.76
287.26 K, 10490 kPa | 72.25
288.45 K, 32894 kPa | 72.96
289.34 K, 33552 kPa | 73.33
289.52 K, 11964 kPa | 71.92
289.95 K, 12212 kPa | 72.29
292.2 K, 13671 kPa | 72.85
292.64 K, 13928 kPa | 73.17
294.88 K, 15364 kPa | 73.57
295.34 K, 15644 kPa | 73.82
297.56 K, 17055 kPa | 74.47
298.05 K, 17358 kPa | 74.2
300.26 K, 18750 kPa | 74.37
300.73 K, 2939 kPa | 74.37
300.76 K, 19068 kPa | 74.45
301.58 K, 3377 kPa | 74.41
301.67 K, 3419 kPa | 74.62
302.95 K, 20442 kPa | 74.16
303.48 K, 20773 kPa | 74.78
303.54 K, 4354 kPa | 74.77
304.37 K, 4801 kPa | 74.97
304.51 K, 4850 kPa | 74.76
305.65 K, 22131 kPa | 75.52
306.2 K, 22473 kPa | 75.56
306.36 K, 5801 kPa | 74.54
307.19 K, 6235 kPa | 74.97
307.35 K, 6310 kPa | 75.3
308.37 K, 23829 kPa | 76.01
308.94 K, 24172 kPa | 76.12
309.19 K, 7252 kPa | 75.53
310.01 K, 7669 kPa | 75.56
310.22 K, 7778 kPa | 75.78
311.08 K, 25517 kPa | 76.58
311.68 K, 25869 kPa | 76.11
312.04 K, 8706 kPa | 75.83
312.85 K, 9104 kPa | 76.02
313.1 K, 9241 kPa | 76.23
313.82 K, 27203 kPa | 77.38
314.43 K, 27556 kPa | 77.06
314.91 K, 10151 kPa | 75.71
315.69 K, 10543 kPa | 77.05
316 K, 10697 kPa | 76.49
316.58 K, 28887 kPa | 76.95
317.18 K, 29242 kPa | 77.79
317.79 K, 11598 kPa | 77.05
318.56 K, 11984 kPa | 77.31
318.91 K, 12158 kPa | 77.07
319.33 K, 30553 kPa | 77.02
319.67 K, 2142 kPa | 76.76
319.95 K, 30930 kPa | 77.48
320.71 K, 13058 kPa | 77.4
321.3 K, 2771 kPa | 77.58
321.43 K, 13428 kPa | 77.25
321.83 K, 13623 kPa | 76.95
322.1 K, 32227 kPa | 78.59
322.71 K, 3326 kPa | 77.29
322.73 K, 32614 kPa | 78
323.62 K, 14518 kPa | 78.11
324.31 K, 14874 kPa | 77.39
324.35 K, 3977 kPa | 78.06
324.77 K, 15094 kPa | 77.5
324.91 K, 33925 kPa | 78.84
325.78 K, 4543 kPa | 78.25
326.57 K, 15995 kPa | 78.02
327.22 K, 16325 kPa | 78.34
327.42 K, 5191 kPa | 78.96
327.73 K, 16576 kPa | 78.56
328.88 K, 5770 kPa | 78.35
329.52 K, 17472 kPa | 78.67
330.15 K, 17784 kPa | 78.59
330.51 K, 6416 kPa | 78.78
330.7 K, 18059 kPa | 79.38
331.99 K, 6999 kPa | 78.63
332.5 K, 18957 kPa | 79.25
333.09 K, 19244 kPa | 78.85
333.62 K, 7647 kPa | 78.71
333.68 K, 19542 kPa | 80.2
335.12 K, 8240 kPa | 79.2
335.5 K, 20439 kPa | 79.93
336.05 K, 20709 kPa | 79.2
336.7 K, 21027 kPa | 80.28
336.76 K, 8887 kPa | 79.06
338.28 K, 9489 kPa | 80.76
338.52 K, 21926 kPa | 80.26
339.05 K, 22184 kPa | 80.79
339.73 K, 22511 kPa | 80.76
339.92 K, 10135 kPa | 80.44
341.46 K, 10747 kPa | 81.71
341.56 K, 23408 kPa | 80.54
342.07 K, 23667 kPa | 81.31
342.79 K, 24013 kPa | 81.23
343.1 K, 11393 kPa | 80.84
344.62 K, 24907 kPa | 81.87
344.67 K, 12011 kPa | 81.35
